We go through one compound from patent US20220213052A1, “INHIBITORS OF RNA-BINDING PROTEINS, COMPOSITIONS THEREOF, AND THERAPEUTIC USES THEROF” (The University of North Carolina at Chapel Hill, priority 2019, published 2022).

pKi: −log10 of the molar value. Where only a bound is given, the exact number is not on record here.

Data set [1] has as its system MDA-MB-231 mouse xenograft. Description: MDA-MB-231 mouse xenograft model, KH-39 alone and with docetaxel. In kind it is in vivo, mice. Particulars: after three-week treatment; KH-39 i.p. 50 mg/kg 5 times per week; TXT i.v.; ***P<0.001, ****P<0.0001, n=12. The text has this: Cytotoxicity assays (as described earlier in this disclosure) for various cancer cell lines will also be performed utilizing concentrations of a compound of the present technology that are below the lethal threshold for the compound for the particular cancer (a “sub-lethal concentration”) in combination with a chemotherapeutic compound (e.g., docetaxel or doxorubicin) to illustrate compounds of the present technology sensitize cancer cell lines to chemotherapy. By way of illustration in an in vivo model, in vivo antitumor efficacy of KH-39 was examined in combination with docetaxel (a first-line chemotherapy for human breast cancer) in a MDA-MB-231 mouse xenograft model. For this, tumor-bearing female athymic mice were provided according to the protocols described earlier in the present disclosure and were randomized into four groups. One group of mice was treated with KH-39 (i.p. 50 mg/kg, 5 times per week), one group with docetaxel (TXT; i.v. at the dosages and time intervals indicated in FIG. 12), one group with a combination of KH-39 and TXT (KH-39 i.p. 50 mg/kg, 5 times per week and TXT i.v. at the dosages and time intervals indicated in FIG. 12), and one group of mice as the vehicle control. FIG. 12 illustrates the results, providing the tumor growth curves for each group.

Data set [2] addresses T1, RNA-binding protein Lin-28 homolog B (LIN28B) (Homo sapiens, UniProt Q6ZN17).
T1 sequence (Q6ZN17 1-250): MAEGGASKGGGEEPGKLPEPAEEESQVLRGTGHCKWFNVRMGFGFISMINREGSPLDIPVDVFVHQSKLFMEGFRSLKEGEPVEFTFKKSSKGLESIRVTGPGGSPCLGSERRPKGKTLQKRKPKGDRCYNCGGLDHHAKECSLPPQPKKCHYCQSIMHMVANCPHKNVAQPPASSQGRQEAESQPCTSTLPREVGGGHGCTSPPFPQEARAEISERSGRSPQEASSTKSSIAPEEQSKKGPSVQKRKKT
Put plainly: LIN28B FP assay.

The subject of data set [3] is 2LMP subclone generated from MDA-MB-231. Description: 2LMP mouse xenograft model. Format: in vivo. The text has this: Xenograft and orthotopic models of cancer cell lines with HuR overexpression will be used to test the in vivo therapeutic potential of compounds of the present technology. A person of ordinary skill in the art is well apprised of cancer cell lines with HuR overexpression, as exemplified by references 2-12 cited herein in the “References” section. Tumor models will be established as described in Xu, L., et al., (−)−Gossypol enhances response to radiation therapy and results in tumor regression of human prostate cancer. Mol Cancer Ther, 2005. 4(2): p. 197-205.35 Briefly, 4-6 week old athymic NCr-nu/nu mice or 8-10-week-old NOD/SCID mice will be inoculated subcutaneously on both sides of flanks with 0.1 ml of a cell suspension of 1-5×10^6 tumor cells. Tumors will be allowed to grow to approximately 100 mm^3, when the blood vessel supplies to the tumor are established. Each group will contain at least 5 animals with at least 10 tumors across the five animals. Animals will be given compounds or vehicle i.v., i.p. or q.o.d.×2-3 weeks as described in Xu, L., et al., Systemic p53 gene therapy of cancer with immunolipoplexes targeted by anti-transferrin receptor scFv. Mol Med, 2001. 7(10): p. 723-34 and Xu, L., et al., Self-assembly of a virus-mimicking nanostructure system for efficient tumor-targeted gene delivery. […] The tumor sizes and animal body weights will be measured twice a week. […]

In data set [4] the target is T2, HuR protein bound to ARE^Msi1-Biotin (Homo sapiens, UniProt Q15717).
T2 construct: endogenous in cells; cytoplasmic lysate
Put plainly: RNA immunoprecipitation (RNA-IP) pull-down assay. To be noted: 20 μM. Format: cell-based. As to the method:
Pull-down Assay #1—RNA Immunoprecipitation (RNA-IP): Cells with HuR overexpression will be treated with compounds, then the cell cytoplasmic lysates were collected using NE-PER Nuclear and Cytoplasmic Extraction Kit (Thermo Scientific), and subsequently to the cell cytoplasmic lysates were added the biotinylated target ARE oligo from Msi1 mRNA (ARE^Msi1-Biotin). Following this, streptavidin beads were added to pull down HuR protein bound to ARE^Msi1-Biotin. Unlabeled target AREs used as positive control. Compounds of the present technology block the HuR pull-down by the biotinylated ARE oligo, illustrating inhibition of the HuR-mRNA interaction. For example, using 20 μM KH-39, 20 μM KH-56, and 10 μM KH-58 in such a RNA-IP assay provided the data illustrated in FIG. 5. The numbers immediately below the pictured bands in FIG. 5 are calculated by diving the band intensity of the particular sample by the band intensity of the DMSO treated sample (entry 3). […]

T2 sequence (Q15717 2-326 limits assumed): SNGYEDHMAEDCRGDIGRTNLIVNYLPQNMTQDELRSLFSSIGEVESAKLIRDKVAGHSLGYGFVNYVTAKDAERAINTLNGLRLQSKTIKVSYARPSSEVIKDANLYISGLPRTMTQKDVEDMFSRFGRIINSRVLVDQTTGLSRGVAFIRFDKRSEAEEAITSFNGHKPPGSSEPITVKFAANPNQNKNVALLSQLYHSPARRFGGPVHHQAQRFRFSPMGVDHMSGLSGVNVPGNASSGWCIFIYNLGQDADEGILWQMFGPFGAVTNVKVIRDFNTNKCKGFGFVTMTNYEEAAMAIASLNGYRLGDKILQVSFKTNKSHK

For orientation: pKi means −log10 of the Ki, conventionally taken in molar units. A higher pKi goes with a small Ki. Turning to `CC(C)(C)c1ccc(C(=O)Nc2ccc3[nH]c(C(=O)NO)cc3c2)cc1` [KH-39, 5-(4-(tert-butyl)benzamido)-N-hydroxy-1H-indole-2-carboxamide], the “relative tumor sizes versus control group” value in data set [1] was “significantly smaller than those in control group”. Further, the pKi in data set [2] is less than 4.70. For the same compound, the “bodyweight gain of mice” value in data set [3] (2LMP xenograft model) is “gain bodyweight with similar trend to those in vehicle control group”. The “tumor growth compared to the vehicle control” value in data set [3] (after three-week treatment, ****P<0.0001, n=10) is “significantly decreased tumor growth”. Besides, the “ARE^Msi1-Biotin mediated pull-down of HuR protein” value in data set [4] is “block ARE^Msi1-Biotin mediated pull-down of HuR protein”.
